This note sets out measurements from US20230039917A1, “EXO-AZA SPIRO INHIBITORS OF MENIN-MLL INTERACTION” (Janssen Pharmaceutica NV, priority 2017, published 2023).

Like-named read-outs stand apart in the source and are kept apart here.

Usually IC50 stands for the concentration at which inhibition is half-maximal.

Assay [1] has as its system MOLM14 cells. The assay can be described thus: Proliferation assay A (spheroid assay) MOLM14. Conditions: Homo sapiens, MOLM-14, 192 h, 8 d, AUC of confluence against time, absolute IC50, read-out: (3a) Spheroid assay MOLM14 (IC50(μM)) Assay A. Type of assay: cell-based. As for the experimental part: (§1) 3a) Proliferation Assay A
(§2) The anti-proliferative effect of menin/MLL protein/protein interaction inhibitor test compounds was assessed in human leukemia cell lines. The cell lines MV-4-11 and MOLM14 harbor MLL translocations and express the MLL fusion proteins MLL-AF4 and MLL-AF9, respectively, as well as the wildtype protein from the second allele. […] K562 was used as a control cell line containing two MLL wildtype alleles in order to exclude compounds that display general cytotoxic effects.
(§3) MV-4-11 and MOLM14 were cultured in RPMI-1640 (Sigma Aldrich) supplemented with 10% fetal bovine serum (HyClone), 2 mM L-glutamine (Sigma Aldrich) and 50 μg/ml gentamycin (Gibco). K562 were propagated in RPMI-1640 (Sigma Aldrich) supplemented with 20% fetal bovine serum (HyClone), 2 mM L-glutamine (Sigma Aldrich) and 50 μg/ml gentamycin (Gibco).
(§4) In order to assess the anti-proliferative effects, 1,500 MV-4-11, 300 MOLM14 or 750 K562 cells were seeded in 200 μl media per well in 96-well round bottom, ultra-low attachment plates (Costar, catalogue number 7007). Cell seeding numbers were chosen based on growth curves to ensure linear growth throughout the experiment. Test compounds were added at different concentrations and the DMSO content was normalized to 0.3%. Cells were incubated for 8 d at 37° C. and 5% CO2. Spheroid like growth was monitored in real-time by live-cell imaging (IncuCyteZOOM, Essenbio, 4× objective) acquiring one image every four hours for 8 d. Confluence (%) as a measure of spheroid size was determined using an integrated analysis tool.
(§5) In order to determine the cumulative effect of the test compounds over time, the area under the curve (AUC) in a plot of confluence against time was calculated. Confluence at the beginning of the experiment (t=0) was used as baseline for the AUC calculation.
(§6) Absolute IC50 values were calculated according to the following procedure:
(§7) % Control=(AUC sample/AUC control)*100
(§8) AUC control=mean AUC of control values (cells without compound/DMSO as vehicle control)
(§9) A non-linear curve fit was applied using the least squares (ordinary) fit method to the plot of % control versus compound concentration. Based on this, the absolute IC50 value (half maximal inhibitory concentration of the test compound causing an anti-proliferative effect of 50% relative to the vehicle control) was calculated.

The test system of assay [2] is MV-4-11 cells. The assay can be described thus: Proliferation assay A (spheroid assay) MV-4-11. Type of assay: cell-based. Conditions: Homo sapiens, MV4-11, 192 h, 8 d, AUC of confluence against time, absolute IC50, read-out: (3a) Spheroid assay MV-4-11 (IC50(μM)) Assay A. Here is the method: as §1, §2, §3, §4, §5, §6, §7, §8, §9
Assay [3] deals with T1, menin.FITC-MBM1 complex (terbium chelate-labeled menin) (Homo sapiens, UniProt O00255, F410E/T541A).
T1 construct: Menin (a.a. 1-610-6×his tag) was labeled with terbium cryptate as follows
T1 sequence (O00255 with tags, fused parts or gaps F410E/T541A): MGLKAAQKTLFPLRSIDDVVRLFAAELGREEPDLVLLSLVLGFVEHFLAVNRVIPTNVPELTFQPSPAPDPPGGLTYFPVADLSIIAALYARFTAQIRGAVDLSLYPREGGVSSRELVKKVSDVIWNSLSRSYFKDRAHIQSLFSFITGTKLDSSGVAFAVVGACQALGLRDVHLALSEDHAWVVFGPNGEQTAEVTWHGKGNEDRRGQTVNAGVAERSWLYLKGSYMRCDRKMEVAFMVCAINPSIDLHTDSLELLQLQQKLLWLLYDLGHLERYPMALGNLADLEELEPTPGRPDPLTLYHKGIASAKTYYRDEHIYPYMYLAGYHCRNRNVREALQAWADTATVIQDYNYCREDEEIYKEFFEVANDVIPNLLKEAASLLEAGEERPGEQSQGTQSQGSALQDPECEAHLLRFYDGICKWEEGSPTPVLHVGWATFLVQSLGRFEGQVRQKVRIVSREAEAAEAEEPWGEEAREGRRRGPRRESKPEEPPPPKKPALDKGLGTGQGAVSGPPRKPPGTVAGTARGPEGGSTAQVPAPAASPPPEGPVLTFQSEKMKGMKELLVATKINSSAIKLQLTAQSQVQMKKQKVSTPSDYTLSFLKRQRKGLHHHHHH
The assay can be described thus: Menin/MLL homogenous time-resolved fluorescence (HTRF) assay. Type of assay: binding. Here is the method:
2) Menin/MLL Homogenous Time-Resolved Fluorescence (HTRF) Assay
To an untreated, white 384-well microtiter plate was added 40 nL 200× test compound in DMSO and 4 μL 2× terbium chelate-labeled menin (vide infra for preparation) in assay buffer (40 mM Tris.HCl, pH 7.5, 50 mM NaCl, 1 mM DTT and 0.05% Plutonic F-127). After incubation of test compound and terbium chelate-labeled menin for 5 min at ambient temperature, 4 μL2× FITC-MBM1 peptide (FITC-β-alanine-[…]-NH2) in assay buffer was added, the microtiter plate centrifuged at 1000 rpm for 1 min and the assay mixtures incubated for 15 min at ambient temperature. The relative amount of menin.FITC-MBM1 complex present in an assay mixture is determined by measuring the homogenous time-resolved fluorescence (HTRF) of the terbium/FITC donor/acceptor fluorphore pair using a BMG Pherastar plate reader (ex. 337 nm/terbium em. 490 nm/FITC em. 520 nm) at ambient temperature. The degree of fluorescence resonance energy transfer (the HTRF value) is expressed as the ratio of the fluorescence emission intensities of the FITC and terbium fluorophores (F^em 520 nm/F^em 490 nm). The final concentrations of reagents in the binding assay are 100 pM terbium chelate-labeled menin (location 1) or 600 pM terbium chelate-labeled menin (location 2), 75 nM FITC-MBM1 peptide and 0.5% DMSO in assay buffer. Dose-response titrations of test compounds are conducted using an 11 point, three-fold serial dilution scheme, starting typically at 25 μM (location 1) or starting typically at 10 μM (location 2).
Compound potencies were determined by first calculating % inhibition at each compound concentration according to equation 1:
% inhibition=((HC−LC)−(HTRF^compound−LC))/(HC−LC))*100 (Eqn 1)
Where LC and HC are the HTRF values of the assay in the presence or absence of a saturating concentration of a compound that competes with FITC-MBM1 for binding to menin, and HTRF^compound is the measured HTRF value in the presence of the test compound. HC and LC HTRF values represent an average of at least 16 replicates per plate.
% inhibition=Bottom+(Top−Bottom)/(1+10^((log IC50−log [cmpd])*h)) (Eqn 2)
Where Bottom and Top are the lower and upper asymptotes of the dose-response curve, respectively, IC50 is the concentration of compound that yields 50% inhibition of signal and h is the Hill coefficient.
Preparation of Terbium cryptate labeling of Menin: Menin (a.a. 1-610-6×his tag) was labeled with terbium cryptate as follows. 2 mg of Menin was buffer exchanged into 1× phosphate buffered saline. 16 uM Menin was incubated with 4-fold molar excess NHS-terbium cryptate (Cisbio Bioassays, Bedford, Mass.) for 2 hours at room temperature. The labeled protein was purified away from free label by running the reaction over a Superdex 200 Increase 10/300 GL column at 0.75 ml/min. Peak fractions were collected, aliquoted and frozen at −80° C.
A general note: Time-resolved FRET reads energy transfer from a long-lived donor to a nearby acceptor.

Assay [4] has as its system MOLM14 cells. The assay can be described thus: Proliferation assay B (spheroid assay) MOLM14. Conditions: Homo sapiens, MOLM-14, 192 h, confluence at day 8, read-out: (3b) Spheroid assay MOLM14 (IC50(μM)) Assay B. Type of assay: cell-based, human. Here is the method:
(§10) 3b) Proliferation Assay B
as §2, §3
as §4, with “MOLM14 cells” for “MOLM14”, “measured” for “monitored”, “images at day 8.” for “one image every four hours for 8 d.”
In order to determine the effect of the test compounds over time, the confluence in each well as a measure of spheroid size, was calculated. Confluence […] at the beginning of the experiment (t=0) was used as baseline for the calculation.
Absolute IC50 values were calculated as percent change in confluence as follows:
LC=Low Control: cells treated with 1 μM of the cytotoxic agent staurosporin
HC=High Control: Mean confluence (%) (DMSO treated cells)
Effect=100−(100*(Sample−LC)/(HC−LC))
To determine the IC50 a curve is fitted to the plot of % Effect vs Log 10 compound concentration using a sigmoidal fit with a variable slope and fixing the maximum to 100% and the minimum to 0%.

Assay [5] concerns MV-4-11 cells. Briefly: Proliferation assay B (spheroid assay) MV-4-11. Type of assay: cell-based. Conditions: Homo sapiens, MV4-11, 192 h, confluence at day 8, read-out: (3b) Spheroid assay MV-4-11 (IC50(μM)) Assay B. As for the experimental part:
as §10, §2
MV-4-11 and MOLM14 were cultured in RPMI-1640 (Sigma Aldrich) supplemented with 10% fetal bovine serum (HyClone), 2 mM L-glutamine (Sigma Aldrich) and 50 μg/ml gentamycin (Gibco). […]
In order to assess the anti-proliferative effects, 1,500 MV-4-11, 300 MOLM14 cells or 750 K562 cells were seeded in 200 μl media per well in 96-well round bottom, ultra-low attachment plates (Costar, catalogue number 7007). […] Spheroid like growth was measured in real-time by live-cell imaging (IncuCyteZOOM, Essenbio, 4× objective) acquiring images at day 8. Confluence (%) as a measure of spheroid size was determined using an integrated analysis tool.
In order to determine the effect of the test compounds over time, the confluence in each well as a measure of spheroid size, was calculated. […]
Absolute IC50 values were calculated as percent change in confluence as follows: […]

Setting [6] is: location 1, read-out: (2) location 1 Menin HTRF assay (IC50 (nM)).
The mark [7] stands for this setting: location 2, read-out: (2) location 2 Menin HTRF assay (IC50 (nM)).

As to `FC(F)(F)Cc1cc2c(N3CC4(CCC(NCc5ccccc5)C4)C3)ncnc2s1` (single isomer, unassigned) [Compound 46], the figures for the half-maximal inhibitory concentration (IC50) in assay [1], in assay [2] and in assay [3] (setting [6]) were 1.87 µM, 0.31 µM and 22 nM, respectively.

For `O=c1[nH]c2ccc(CN[C@H]3CCC4(C3)CN(c3ncnc5sc(CC(F)(F)F)cc35)C4)cc2o1` (single isomer, unassigned) [Compound 56], the half-inhibitory concentration (IC50) in assay [1] was 2 µM; in assay [2], 0.45 µM; in assay [3] (setting [7]), 5.1 nM.

Regarding `O=c1[nH]c2cc(CN[C@H]3CCC4(C3)CN(c3ncnc5sc(CC(F)(F)F)cc35)C4)ccc2o1` (single isomer, unassigned) [Compound 58], the IC50 in assay [1] stood at 0.14 µM.

As for `FC(F)(F)Cc1cc2c(N3CC4(CC[C@H](NCc5ccccc5)C4)C3)ncnc2s1` [Compound 45], the IC50 is 2.36 µM in assay [1], 0.41 µM in assay [2] and 20.4 nM in assay [3] (setting [6]).

With `N#CCn1c(=O)[nH]c2cc(CNC3CCC4(C3)CN(c3ncnc5sc(CC(F)(F)F)cc35)C4)ccc21` (stereo not shown) [Compound 99], the IC50 in assay [4] is 0.19 µM; in assay [5], 0.03 µM; in assay [3] (setting [7]), 1.1 nM.

In the case of `FC(F)(F)Cc1cc2c(N3CCC4(CCC(Nc5ccc(-c6cc[nH]n6)cc5)C4)C3)ncnc2s1` (stereo not shown) [Compound 138], the IC50 in assay [1] is greater than 3.75 µM; in assay [2], 3.92 µM; in assay [3] (setting [7]) it was 8.8 nM.
